Measured values published in PubChem BioAssay AID284 (DTP/NCI, 2004).
Where “and” joins values, the source holds several entries; their conditions need not be identical. Equal entries are not always repeated. Toxic doses and inconclusive results are not listed. The calls were made as follows: active = survival T/C of 150% or more; inactive = T/C below 125% in these data.

Tested on: BDF1 mice, L1210/MTX-resistant leukemia ip, survival T/C
Experiment: NCI In Vivo Anticancer Drug Screen. Data for tumor model L1210 Leukemia resistant to Methotrexate; NSC 740 (intraperitoneal) in B6D2F1 (BDF1) mice
Conditions: endpoint: mean survival time, higher = longer survival
Method: The antitumor activity of compounds was measured in mice bearing transplantable tumors. Survival or tumor size were measured and the results are expressed as the measurement made in the treated group (T) divided by the measurement made in the vehicle treated control group (C). The tumor model used in this assay is L1210 Leukemia resistant to Methotrexate; NSC 740 (intraperitoneal) in B6D2F1 (BDF1) mice

[1] = dose: 10.0 mg/kg/injection, schedule: Q01DX Z (ip), vehicle: saline

Measured: T/C

O=C(Nc1ccc(C2=NCCN2)cc1)c1ccc(C(=O)Nc2ccc(C3=NCCN3)cc2)c(Cl)c1
active: dose: 8.0 mg/kg/injection, schedule: Q01DX010 (ip), vehicle: other 170 % of control | dose: 16.0 mg/kg/injection, schedule: Q01DX010 (ip), vehicle: other 177 % of control and 221 % of control | dose: 30.0 mg/kg/injection, schedule: Q02DX010 (ip), vehicle: carboxymethylcellulose (CMC) 192 % of control | dose: 32.0 mg/kg/injection, schedule: Q01DX010 (ip), vehicle: other 250 % of control and 274 % of control | dose: 45.0 mg/kg/injection, schedule: Q02DX010 (ip), vehicle: carboxymethylcellulose (CMC) 190 % of control
inactive: dose: 1.9 mg/kg/injection, schedule: Q01DX Z (ip), vehicle: other 88 % of control | dose: 2.0 mg/kg/injection, schedule: Q01DX010 (ip), vehicle: other 122 % of control | dose: 3.8 mg/kg/injection, schedule: Q01DX Z (ip), vehicle: other 94 % of control | dose: 7.5 mg/kg/injection, schedule: Q01DX Z (ip), vehicle: other 97 % of control | dose: 8.5 mg/kg/injection, schedule: Q02DX010 (ip), vehicle: carboxymethylcellulose (CMC) 123 % of control | [1] 118 % of control and 110 % of control | dose: 15.0 mg/kg/injection, schedule: Q01DX Z (ip), vehicle: other 97 % of control | dose: 20.0 mg/kg/injection, schedule: Q01DX Z (ip), vehicle: other 124 % of control | dose: 30.0 mg/kg/injection, schedule: Q01DX Z (ip), vehicle: other 101 % of control | dose: 40.0 mg/kg/injection, schedule: Q01DX Z (ip), vehicle: other 95 % of control | dose: 80.0 mg/kg/injection, schedule: Q01DX Z (ip), vehicle: other 91 % of control | dose: 80.0 mg/kg/injection, schedule: Q01DX Z (ip), vehicle: saline 88 % of control

O=C(O)CCCc1ccc(N(CCCl)CCCl)cc1
inactive: dose: 1.0 mg/kg/injection, schedule: Q01DX Z (ip), vehicle: carboxymethylcellulose (CMC) 105 % of control | dose: 2.0 mg/kg/injection, schedule: Q01DX Z (ip), vehicle: carboxymethylcellulose (CMC) 97 % of control | dose: 4.0 mg/kg/injection, schedule: Q01DX Z (ip), vehicle: carboxymethylcellulose (CMC) 96 % of control | dose: 5.0 mg/kg/injection, schedule: Q01DX Z (ip), vehicle: carboxymethylcellulose (CMC) 103 % of control | dose: 6.25 mg/kg/injection, schedule: Q01DX Z (ip), vehicle: carboxymethylcellulose (CMC) 107 % of control | dose: 12.5 mg/kg/injection, schedule: Q01DX Z (ip), vehicle: carboxymethylcellulose (CMC) 95 % of control | dose: 25.0 mg/kg/injection, schedule: Q01DX Z (ip), vehicle: carboxymethylcellulose (CMC) 90 % of control

CS(=O)(=O)OCC(O)C(O)COS(C)(=O)=O (stereo unspecified)
inactive: dose: 18.8 mg/kg/injection, schedule: Q01DX Z (ip), vehicle: saline 88 % of control | dose: 37.5 mg/kg/injection, schedule: Q01DX Z (ip), vehicle: saline 90 % of control | dose: 75.0 mg/kg/injection, schedule: Q01DX Z (ip), vehicle: saline 101 % of control

Nc1nc2n[nH]nc2c(=O)[nH]1
inactive: dose: 25.0 mg/kg/injection, schedule: Q01DX010 (ip), vehicle: alkali diluted with saline 92 % of control | dose: 25.0 mg/kg/injection, schedule: Q01DX Z (ip), vehicle: water 120 % of control | dose: 50.0 mg/kg/injection, schedule: Q01DX010 (ip), vehicle: alkali diluted with saline 94 % of control and 99 % of control | dose: 50.0 mg/kg/injection, schedule: Q01DX Z (ip), vehicle: other 106 % of control | dose: 50.0 mg/kg/injection, schedule: Q01DX Z (ip), vehicle: water 120 % of control | dose: 100.0 mg/kg/injection, schedule: Q01DX010 (ip), vehicle: alkali diluted with saline 90 % of control and 91 % of control | dose: 100.0 mg/kg/injection, schedule: Q01DX Z (ip), vehicle: other 101 % of control | dose: 200.0 mg/kg/injection, schedule: Q01DX010 (ip), vehicle: alkali diluted with saline 88 % of control and 98 % of control | dose: 200.0 mg/kg/injection, schedule: Q01DX Z (ip), vehicle: water 107 % of control | dose: 350.0 mg/kg/injection, schedule: Q01DX Z (ip), vehicle: water 94 % of control

O=CCC(O)C(O)C(O)CO (stereo unspecified)
inactive: dose: 3.75 mg/kg/injection, schedule: Q01DX Z (ip), vehicle: saline 113 % of control | dose: 5.0 mg/kg/injection, schedule: Q01DX Z (ip), vehicle: saline 118 % of control | dose: 7.5 mg/kg/injection, schedule: Q01DX Z (ip), vehicle: saline 114 % of control and 103 % of control | [1] 118 % of control | dose: 15.0 mg/kg/injection, schedule: Q01DX Z (ip), vehicle: saline 114 % of control | dose: 250.0 mg/kg/injection, schedule: Q01DX Z (ip), vehicle: saline 108 % of control | dose: 500.0 mg/kg/injection, schedule: Q01DX Z (ip), vehicle: saline 104 % of control | dose: 750.0 mg/kg/injection, schedule: Q01DX Z (ip), vehicle: saline 99 % of control | dose: 1000.0 mg/kg/injection, schedule: Q01DX Z (ip), vehicle: saline 91 % of control
